Measured values from publication PMC9867436, “Drug Repurposing to Inhibit Histamine N-Methyl Transferase” (Molecules, 2023).
Read-outs that look alike come from different tables or passages of the source.

Molecular target: T1, Histamine N-Methyltransferase (HNMT) (Homo sapiens, UniProt P50135)
T1 construct: Recombinant Human Histamine N-Methyltransferase (rhHNMT, R&D Systems 7637-MT)
Assay: fluorescence assay of histamine methylation by recombinant HNMT (ex […]/em […] nm)
Type: biochemical

T1 sequence (P50135 whole entry): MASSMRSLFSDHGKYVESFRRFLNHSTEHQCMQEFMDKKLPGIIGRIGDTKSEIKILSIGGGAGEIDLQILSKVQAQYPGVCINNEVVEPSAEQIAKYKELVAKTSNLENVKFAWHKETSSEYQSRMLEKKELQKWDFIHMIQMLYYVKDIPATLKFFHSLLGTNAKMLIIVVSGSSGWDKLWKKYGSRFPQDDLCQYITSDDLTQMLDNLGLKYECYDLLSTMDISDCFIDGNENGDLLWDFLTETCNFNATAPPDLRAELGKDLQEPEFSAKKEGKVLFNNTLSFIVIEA

Row | IC50 (read-out: IC50) [µM] | Structure (SMILES) | IC50 [µM]
1 |  | CN1C[C@H](C(=O)N[C@]2(C)O[C@@]3(O)[C@@H]4CCCN4C(=O)[C@H](Cc4ccccc4)N3C2=O)C[C@@H]2c3cccc4[nH]cc(c34)C[C@H]21 [dihydroergotamine] | 72.9
2 | 0.0667 | Cc1nc(N)nc(N)c1-c1ccc(Cl)c(Cl)c1 [metoprine, reference compound] | 
3 | 45 | N#Cc1ccc2[nH]cc(CCCCN3CCN(c4ccc5oc(C(N)=O)cc5c4)CC3)c2c1 [vilazodone] | 
